Laboratory results taken from ChEMBL document CHEMBL3044586, “Design, synthesis, and anticonvulsant screening of some substituted piperazine and aniline derivatives of 5-phenyl-oxazolidin-2,4-diones and 5,5-diphenylimidazolidin-2,4 diones” (Med Chem Res, 2012).
The source made the active and inactive calls. The rule behind the calls is not given here.

Columns and labels:
Mus musculus [1] = experiment: Antagonist activity at 5HT2A receptor in ip dosed Mus musculus Swiss albino (mouse) assessed as inhibition of +/-DOI-induced head twitching administered 60 min prior to +/-DOI-challenge measured for 20 min; type: functional; details: read-out: ID50 (the source's name)
Mus musculus [2] = experiment: Neurotoxicity against Mus musculus Swiss albino (mouse) assessed as inability to maintain equilibrium on rod at 30 to 300 mg/kg, ip measured after 0.5 hr by rotarod test; type: toxicity, organism-based; parameters: dose 30-300 mg/kg, route intraperitoneal; details: in vivo
Mus musculus [3] = experiment: Anticonvulsant activity in Mus musculus Swiss albino (mouse) assessed as reduction in maximal electroshock-induced seizure at 30 to 300 mg/kg, ip measured after 0.5 hr; type: functional, organism-based
Mus musculus [4] = experiment: Neurotoxicity against Mus musculus Swiss albino (mouse) assessed as inability to maintain equilibrium on rod at 30 to 300 mg/kg, ip measured after 4 hr by rotarod test; type: toxicity, organism-based; parameters: dose 30-300 mg/kg, route intraperitoneal; details: in vivo
Mus musculus [5] = experiment: Anticonvulsant activity in Mus musculus Swiss albino (mouse) assessed as reduction in maximal electroshock-induced seizure at 30 to 300 mg/kg, ip measured after 4 hr; type: functional, organism-based
Rattus norvegicus [6] = experiment: Presynaptic agonist activity at 5HT1A receptor in Rattus norvegicus Wistar (rat) assessed as change in rectal temperature at 20 mg/kg, ip measured after 120 min (reference value: 0.0 +/- 0.1 degC); type: functional, organism-based; parameters: dose 20 mg/kg
Rattus norvegicus [7] = experiment: Anticonvulsant activity in Rattus norvegicus Wistar (rat) assessed as reduction in maximal electroshock-induced seizures at 30 mg/kg, po measured after 0.5 hr; type: functional, organism-based; parameters: dose 30 mg/kg
Rattus norvegicus [8] = experiment: Presynaptic agonist activity at 5HT1A receptor in Rattus norvegicus Wistar (rat) assessed as change in rectal temperature at 10 mg/kg, ip measured after 90 min (reference value: -0.2 +/- 0.1 degC); type: functional, organism-based; parameters: dose 10 mg/kg
Mus musculus [9] = experiment: Anticonvulsant activity in Mus musculus Swiss albino (mouse) assessed as reduction in maximal electroshock-induced seizure at 30 mg/kg, ip measured after 4 hr; type: functional, organism-based; parameters: dose 30 mg/kg
Rattus norvegicus [10] = experiment: Presynaptic agonist activity at 5HT1A receptor in Rattus norvegicus Wistar (rat) assessed as change in rectal temperature at 10 mg/kg, ip measured after 30 min (reference value: -0.1 +/- 0.1 degC); type: functional, organism-based; parameters: dose 10 mg/kg
Rattus norvegicus [11] = experiment: Presynaptic agonist activity at 5HT1A receptor in Rattus norvegicus Wistar (rat) assessed as change in rectal temperature at 10 mg/kg, ip measured after 60 min (reference value: 0.0 +/- 0.1 degC); type: functional, organism-based; parameters: dose 10 mg/kg
Rattus norvegicus [12] = experiment: Neurotoxicity against Rattus norvegicus Wistar (rat) assessed as inability to maintain equilibrium on rod at 30 mg/kg, po measured after 4 hr by rotarod test; type: toxicity, organism-based; parameters: dose 30 mg/kg, route oral; details: in vivo
Rattus norvegicus [13] = experiment: Presynaptic agonist activity at 5HT1A receptor in Rattus norvegicus Wistar (rat) assessed as change in rectal temperature at 20 mg/kg, ip measured after 90 min (reference value: -0.2 +/- 0.1 degC); type: functional, organism-based; parameters: dose 20 mg/kg
Rattus norvegicus [14] = experiment: Neurotoxicity against Rattus norvegicus Wistar (rat) assessed as inability to maintain equilibrium on rod at 30 mg/kg, po measured after 0.5 hr by rotarod test; type: toxicity, organism-based; parameters: dose 30 mg/kg, route oral; details: in vivo
Rattus norvegicus [15] = experiment: Presynaptic agonist activity at 5HT1A receptor in Rattus norvegicus Wistar (rat) assessed as change in rectal temperature at 20 mg/kg, ip measured after 60 min (reference value: 0.0 +/- 0.1 degC); type: functional, organism-based; parameters: dose 20 mg/kg
Rattus norvegicus [16] = experiment: Anticonvulsant activity in Rattus norvegicus Wistar (rat) assessed as reduction in maximal electroshock-induced seizures at 30 mg/kg, po measured after 4 hr; type: functional, organism-based; parameters: dose 30 mg/kg
Rattus norvegicus [17] = experiment: Presynaptic agonist activity at 5HT1A receptor in Rattus norvegicus Wistar (rat) assessed as change in rectal temperature at 10 mg/kg, ip measured after 120 min (reference value: 0.0 +/- 0.1 degC); type: functional, organism-based; parameters: dose 10 mg/kg
Rattus norvegicus [18] = experiment: Postsynaptic antagonist activity at 5HT1A receptor in Rattus norvegicus Wistar (rat) assessed as inhibition of 8-OH-DPAT-induced lower lip retraction at 10 to 20 mg/kg, ip administered 45 min prior to 8-OH-DPAT-challenge measured after 15 min; type: functional, organism-based
Rattus norvegicus [19] = experiment: Presynaptic agonist activity at 5HT1A receptor in Rattus norvegicus Wistar (rat) assessed as change in rectal temperature at 20 mg/kg, ip measured after 30 min (reference value: -0.1 +/- 0.1 degC); type: functional, organism-based; parameters: dose 20 mg/kg
Mus musculus [20] = experiment: Anticonvulsant activity in Mus musculus Swiss albino (mouse) assessed as reduction in maximal electroshock-induced seizure at 100 mg/kg, ip measured after 0.5 hr; type: functional, organism-based; parameters: dose 100 mg/kg
Mus musculus [21] = experiment: Binding affinity to 5HT2A receptor in ip dosed Mus musculus Swiss albino (mouse) assessed as effect on +/-DOI-induced head twitching administered 60 min prior to +/-DOI-challenge measured for 20 min; type: functional, organism-based
Rattus norvegicus [22] = experiment: Postsynaptic agonist activity at 5HT1A receptor in Rattus norvegicus Wistar (rat) assessed as increase in lower lip retraction at 10 to 20 mg/kg, ip measured after 15 min; type: functional, organism-based
Mus musculus [23] = experiment: Anticonvulsant activity in Mus musculus Swiss albino (mouse) assessed as reduction in maximal electroshock-induced seizure at 100 mg/kg, ip measured after 4 hr; type: functional, organism-based; parameters: dose 100 mg/kg

Row | SMILES | Activity (Mus musculus [2]) | Activity (Mus musculus [3]) | Activity (Mus musculus [4]) | Activity (Mus musculus [5]) | deltaT (Rattus norvegicus [6]) | Activity (Rattus norvegicus [7]) | deltaT (Rattus norvegicus [8]) | Activity (Mus musculus [9]) | deltaT (Rattus norvegicus [10]) | deltaT (Rattus norvegicus [11]) | Activity (Rattus norvegicus [12]) | deltaT (Rattus norvegicus [13]) | Activity (Rattus norvegicus [14]) | deltaT (Rattus norvegicus [15]) | Activity (Rattus norvegicus [16]) | deltaT (Rattus norvegicus [17]) | deltaT (Rattus norvegicus [19]) | further results
1 | O=C(c1ccc(F)cc1)C1CCN(CCn2c(=O)[nH]c3ccccc3c2=O)CC1 [KETANSERIN] | – | – | – | – | – | – | – | – | – | – | – | – | – | – | – | – | – | ED50 (Mus musculus [1]): 0.12 mg/kg
2 | Cc1ccc(NCCN2C(=O)NC(c3ccccc3)(c3ccccc3)C2=O)cc1 | Non-toxic | inactive | Non-toxic | inactive | – | – | – | – | – | – | – | – | – | – | – | – | – | –
3 | Cc1ccc(NCCN2C(=O)OC(c3ccccc3)C2=O)cc1 (stereo unspecified) | Non-toxic | inactive | Non-toxic | inactive | – | – | – | – | – | – | – | – | – | – | – | – | – | –
4 | O=C1OC(c2ccccc2)C(=O)N1CCNc1ccc(O)cc1 (stereo unspecified) | Non-toxic | – | Non-toxic | – | -1.1 °C | Active | -0.7 °C | Active | -0.4 °C | -0.6 °C | Non-toxic | -1.6 °C | Non-toxic | -1.2 °C | Active | -0.6 °C | -1 °C | ED50 (Mus musculus [1]): 11 mg/kg; inhibition (Rattus norvegicus [18]): Active; Activity (Mus musculus [20]): Active
5 | O=C1NC(c2ccccc2)(c2ccccc2)C(=O)N1CCN1CCN(c2ccccn2)CC1 | Non-toxic | inactive | Non-toxic | inactive | – | – | – | – | – | – | – | – | – | – | – | – | – | –
6 | O=C1OC(c2ccccc2)C(=O)N1CCNc1ccc(Cl)cc1 (stereo unspecified) | Non-toxic | – | Non-toxic | – | -1.3 °C | Active | -0.7 °C | Active | -0.2 °C | -0.5 °C | Non-toxic | -1.5 °C | Non-toxic | -1.3 °C | Active | -0.5 °C | -1.2 °C | ED50 (Mus musculus [1]): 8 mg/kg; inhibition (Rattus norvegicus [18]): Active; Activity (Mus musculus [20]): Active
7 | O=C1NC(c2ccccc2)(c2ccccc2)C(=O)N1CCNc1ccc(F)cc1 | Non-toxic | – | Non-toxic | – | -1.5 °C | Active | -0.9 °C | Active | -0.5 °C | -0.7 °C | Non-toxic | -2.9 °C | Non-toxic | -2.7 °C | Active | -0.7 °C | -2.5 °C | Activity (Mus musculus [21]): inactive; Activity (Mus musculus [20]): Active; Activity (Rattus norvegicus [22]): Active
8 | O=C1NC(c2ccccc2)(c2ccccc2)C(=O)N1CCN1CCN(c2ccc(F)cc2)CC1 | Non-toxic | inactive | Non-toxic | – | -1.7 °C | inactive | -0.7 °C | Active | -0.9 °C | -0.7 °C | Non-toxic | -1.6 °C | Non-toxic | -1.6 °C | Active | -0.8 °C | -1.7 °C | Activity (Mus musculus [21]): inactive; Activity (Rattus norvegicus [22]): Active
9 | O=C1OC(c2ccccc2)C(=O)N1CCN1CCN(c2ccc(O)cc2)CC1 (stereo unspecified) | Non-toxic | inactive | Non-toxic | inactive | – | – | – | – | – | – | – | – | – | – | – | – | – | –
10 | O=C1OC(c2ccccc2)C(=O)N1CCN1CCN(c2ccc(F)cc2)CC1 (stereo unspecified) | Non-toxic | inactive | Non-toxic | – | -1.4 °C | inactive | -0.5 °C | – | -0.6 °C | -0.4 °C | Non-toxic | -1.4 °C | Non-toxic | -1.4 °C | inactive | -0.5 °C | -1.5 °C | Activity (Mus musculus [23]): Active; Activity (Mus musculus [21]): inactive; inhibition (Rattus norvegicus [18]): Active
11 | Cc1ccc(N2CCN(CCN3C(=O)OC(c4ccccc4)C3=O)CC2)cc1 (stereo unspecified) | Non-toxic | inactive | Non-toxic | inactive | – | – | – | – | – | – | – | – | – | – | – | – | – | –
